This note sets out measurements from US20150141411A1, “SUBSTITUTED 3,4-DIHYDRO-2H-PYRIDO[1,2-A]PYRAZINE-1,6-DIONE DERIVATIVES USEFUL FOR THE TREATMENT OF (INTER ALIA) ALZHEIMER'S DISEASE” (Janssen Pharmaceuticals, Inc., priority 2012, published 2015).

The structures appear in SMILES notation. pIC50: −log10 of the molar value.

Assay [1] deals with T1, γ-secretase (Homo sapiens, UniProt P49768).
T1 construct: endogenous in cells; host or cells: SKNBE2 human neuroblastoma cells (carrying hAPP 695 wild type as substrate)
Briefly: Screening for γ-secretase-modulating activity: Aβ42 in supernatant of SKNBE2 cells carrying hAPP 695 wild type (Alphalisa). The class given is cell-based. To be noted: SKNBE2 human neuroblastoma cells carrying hAPP 695 wild type, overnight incubation, Aβ42 in cell supernatant. The essentials: (§1)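 SKNBE2 neuroblastoma cells expressing wild-type hAPP 695 plated at 10^4 cells/well in Ultraculture with test compound, incubated overnight at 37° C. Aβ42 (C-terminal/N-terminal antibody pair) and Aβtotal (N-terminal/4G8 pair) in supernatant quantified by AlphaLISA. IC50 from 4-parameter fit of percent of compound-free control.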

In assay [2] the target is T1, γ-secretase. Briefly: Screening for γ-secretase-modulating activity: Aβtotal in supernatant of SKNBE2 cells carrying hAPP 695 wild type (Alphalisa). The assay is classed as cell-based. The settings on record: SKNBE2 human neuroblastoma cells carrying hAPP 695 wild type, overnight incubation, Aβtotal in cell supernatant. The essentials:
as §1
For orientation: In Alpha technology, singlet oxygen from a donor bead excites a nearby acceptor bead.

Assay [3] deals with Aβ38. The assay can be described thus: In vivo efficacy: brain soluble Aβ38 in non-transgenic rodents (MSD electrochemiluminescence multiplex). More on the design: species or system mouse. The settings on record: dose 30 mg/kg oral dosing, brain soluble fraction, animals sacrificed after 4 h; for response vs control in vivo at 30 mg/kg: Mus musculus, po, 4 h, untreated animals (Ctrl) set at 100, read-out: Aβ38 (% vs Ctrl)_Mean. The source says:
To determine whether acute administration of an Aβ38 increasing agents would increase Aβ38 levels in vivo, non-transgenic rodents, e.g. mice or rats were used. Animals treated with the Aβ38 increasing agents were examined and compared to those untreated or treated with vehicle and brain levels of soluble Aβ42, Aβ40, Aβ38, and Aβ37 were quantitated by MSD electrochemiluminescence detection technology. Treatment periods varied from hours (h) to days and were adjusted based on the results of the Aβ38 increase once a time course of onset of effect could be established.
A typical protocol for measuring Aβ38 increase in vivo is shown but it is only one of many variations that could be used to optimize the levels of detectable Aβ. For example, Aβ38 increasing agents were formulated in 20% of Captisol® (a sulfobutyl ether of β-cyclodextrin) in water or 20% hydroxypropyl βcyclodextrin. The Aβ38 increasing agents were administered as a single oral dose or by any acceptable route of administration to overnight fasted animals. After 4 h, the animals were sacrificed and Aβ38 levels were analysed.
Blood was collected by decapitation and exsanguinations in EDTA-treated collection tubes. Blood was centrifuged at 1900 g for 10 minutes (min) at 4° C. and the plasma recovered and flash frozen for later analysis. The brain was removed from the cranium and hindbrain. The cerebellum was removed and the left and right hemisphere were separated. The left hemisphere was stored at −18° C. for quantitative analysis of test compound levels. The right hemisphere was rinsed with phosphate-buffered saline (PBS) buffer and immediately frozen on dry ice and stored at −80° C. until homogenization for biochemical assays.
Mouse brains from non-transgenic animals were resuspended in 8 volumes of 0.4% DEA (diethylamine)/50 mM NaCl containing protease inhibitors (Roche-11873580001 or 04693159001) per gram of tissue, e.g. for 0.158 g brain, add 1.264 ml of 0.4% DEA. All samples were homogenized in the FastPrep-24 system (MP Biomedicals) using lysing matrix D (MPBio #6913-100) at 6 m/s for 20 seconds. Homogenates were centrifuged at 20800×g for 5 min and supernatants collected. Supernatants were centrifuged at 221.300×g for 50 min. The resulting high speed supernatants were then transferred to fresh eppendorf tubes. Nine parts of supernatant were neutralized with 1 part 0.5 M Tris-HCl pH 6.8 and used to quantify Aβ.
To quantify the amount of Aβ42, Aβ40, Aβ38, and Aβ37 in the soluble fraction of the brain homogenates, simultaneous specific detection of Aβ42, Aβ40, Aβ38, and Aβ37 was performed using MSD's electro-chemiluminescence multiplex detection technology. In this assay purified monoclonal antibodies specific for Abeta37 (JRD/Aβ37/3), Abeta38 (J&JPRD/Aβ38/5), Abeta40 (JRF/cAβ40/28), and Abeta42 (JRF/cAβ42/26) were coated on MSD 4-plex plates. Briefly, the standards (a dilution of synthetic Aβ42, Aβ40, Aβ38, and Aβ37) were prepared in 1.5 ml Eppendorf tube in Ultraculture, with final concentrations ranging from 10000 to 0.3 pg/m. The samples and standards were co-incubated with Sulfo-tag labelled JRF/rAβ/2 antibody to the N-terminus of Aβ as detector antibody. 50 μl of conjugate/sample or conjugate/standards mixtures were then added to the antibody-coated plate. The plate was allowed to incubate overnight at 4° C. in order to allow formation of the antibody-amyloid complex. Following this incubation and subsequent wash steps the assay was finished by adding read buffer according to the manufacturer's instructions (MesoScale Discovery, Gaitherburg, Md.).
The SULFO-TAG emits light upon electrochemical stimulation initiated at the electrode. MSD Sector instrument SI6000 was used for signal read-out.
In this model a Aβ38 increase compared to untreated animals would be advantageous, in particular a Aβ38 increase with at least 10%, more in particular a Aβ38 increase with at least 20%. […]

With `Cc1cn(-c2ccc3n(c2=O)C[C@@H](C)N(CCc2cc(C(F)(F)F)cc(C(F)(F)F)c2)C3=O)cn1` [compound 50], the pIC50 is 7.40 in assay [1] and less than 5.00 in assay [2]. Further, the response vs control in vivo at 30 mg/kg in assay [3] is 160%.

As for `Cc1cn(-c2ccc3n(c2=O)CC(C)N(C(C)c2cc(C(F)(F)F)cc(C(F)(F)F)c2)C3=O)cn1.Cl` (single isomer, unassigned) [compound 112], the figures for the pIC50 in assay [1] and in assay [2] were 7.15 and less than 5.00, respectively. For the same compound, the “Aβ38 (% vs Ctrl)_Mean” value in assay [3] (untreated animals (Ctrl) set at 100, 30 mg/kg) turned out to be 153 % vs Ctrl.

As to `Cc1cn(-c2ccc3n(c2=O)C[C@@H](C)N(Cc2cc(OC(C)C)nc(C(F)(F)F)c2)C3=O)cn1` [compound 128], the pIC50 is 7.05 in assay [1] and less than 5.00 in assay [2]. The response vs control in vivo at 30 mg/kg in assay [3] was 162%.

With `Cc1cn(-c2cc(F)c3n(c2=O)C[C@@H](C)N(Cc2cc(C(F)(F)F)cc(C(F)(F)F)c2)C3=O)cn1` [compound 158], the pIC50 is 6.34 in assay [1] and less than 5.00 in assay [2]. For the same compound, in assay [3], the response vs control in vivo at 30 mg/kg was found to be 120%.

For the compound `CCn1cc(C(C)N2C(=O)c3ccc(-n4cnc(C)c4)c(=O)n3CC2C)c2cc(Cl)c(F)cc21` (single isomer, unassigned) [compound 192], the values for the negative-log IC50 (pIC50) in assay [1] and in assay [2] were 8.00 and 5.74, respectively. The response vs control in vivo at 30 mg/kg in assay [3] came out at 147%.

Take `Cc1cn(-c2ccc3n(c2=O)C[C@@H](C)N(Cc2cc(N4CCCC4)ccc2Cl)C3=O)cn1` [compound 82]: the negative-log IC50 (pIC50) in assay [1] was 6.96; in assay [2], less than 5.00. Moreover, the response vs control in vivo at 30 mg/kg in assay [3] was 118%.

On to `CCC(c1cc(OC)cc(C(F)(F)F)c1)N1C(=O)c2ccc(-n3cnc(C)c3)c(=O)n2C[C@H]1C` (single isomer, unassigned) [compound 141], for which the results for the pIC50 in assay [1] and in assay [2] were 6.96 and less than 5.00, respectively. For the same compound, in assay [3], the response vs control in vivo at 30 mg/kg amounted to 145%.

As to `Cc1cn(-c2ccc3n(c2=O)C[C@@H](C)N(Cc2cc(OC(F)(F)F)cc(C(F)(F)F)c2)C3=O)cn1` [compound 140], the pIC50 in assay [1] is 7.22; in assay [2], less than 5.00. Besides, the response vs control in vivo at 30 mg/kg in assay [3] amounted to 96%.

As to `Cc1cn(-c2ccc3n(c2=O)C[C@@H](C)N(Cc2cc(CC(F)(F)F)cc(C(F)(F)F)c2)C3=O)cn1` [compound 134], the pIC50 in assay [1] is 7.00; in assay [2], less than 5.00. Also, the response vs control in vivo at 30 mg/kg in assay [3] was 138%.

With `Cc1cn(-c2ccc3n(c2=O)C[C@@H](C)N(Cc2c[nH]c4cc(F)c(Cl)cc24)C3=O)cn1` [compound 195], the negative logarithm of the IC50 (pIC50) in assay [1] is 7.52; in assay [2], 5.19. Further, the response vs control in vivo at 30 mg/kg in assay [3] is 123%.

For `C[C@@H]1Cn2c(ccc(-n3cnc(Cl)c3)c2=O)C(=O)N1Cc1cc(C(F)(F)F)cc(C(F)(F)F)c1` [compound 118], the pIC50 in assay [1] is 6.72; in assay [2], less than 5.00. In assay [3], the response vs control in vivo at 30 mg/kg was determined as 140%.

Take `Cc1cn(-c2ccc3n(c2=O)C[C@@H](C)N(Cc2ccc(F)c(F)c2)C3=O)cn1` [compound 133]: the negative logarithm of the IC50 (pIC50) in assay [1] is 5.82; in assay [2], less than 5.00. In addition, in assay [3], the response vs control in vivo at 30 mg/kg amounted to 84%.

Turning to `Cc1cn(-c2ccc3n(c2=O)C[C@@H](C)N(Cc2cc(N4CCOC(C(F)(F)F)C4)cc(C(F)(F)F)c2)C3=O)cn1` (mixture of isomers) [compound 153], the pIC50 in assay [1] is 7.22; in assay [2] it was less than 5.00. Further, in assay [3], the response vs control in vivo at 30 mg/kg is 108%.

As to `Cc1cn(-c2ccc3n(c2=O)CC(C)N(C(C)c2cn(C(C)C)c4cc(F)c(Cl)cc24)C3=O)cn1` (single isomer, unassigned) [compound 194], the values for the pIC50 in assay [1] and in assay [2] were 8.00 and 5.81, respectively. In addition, the response vs control in vivo at 30 mg/kg in assay [3] came out at 197%.

Consider `Cc1cn(-c2ccc3n(c2=O)CC(C)N(Cc2cc(OCC4CC4)cc(C(F)(F)F)c2)C3=O)cn1.Cl` (centres unmarked) [compound 6], for which the results for the pIC50 in assay [1] and in assay [2] were 7.15 and less than 5.00, respectively. For the same compound, in assay [3], the response vs control in vivo at 30 mg/kg was 118%.

For the compound `Cc1cn(-c2ccc3n(c2=O)C[C@@H](C)N(Cc2cc(C4CC4)cc(C(F)(F)F)c2)C3=O)cn1` [compound 116], the pIC50 is 7.10 in assay [1] and less than 5.00 in assay [2]. The response vs control in vivo at 30 mg/kg in assay [3] is 182%.

Turning to `CCOc1cc(C(C)N2C(=O)c3ccc(-n4cnc(C)c4)c(=O)n3C[C@H]2C)cc(C(F)(F)F)c1` (single isomer, unassigned) [compound 143], the negative logarithm of the IC50 (pIC50) in assay [1] is 7.22; in assay [2] it was less than 5.00. The response vs control in vivo at 30 mg/kg in assay [3] stood at 122%.

As for `Cc1cn(-c2ccc3n(c2=O)CC(C)N(Cc2cc(C(F)(F)F)cc(C(F)(F)F)c2)C3=O)cn1` (centres unmarked) [compound 3], the pIC50 was 7.00 in assay [1] and less than 5.00 in assay [2]. Moreover, in assay [3], the response vs control in vivo at 30 mg/kg came to 133%.

Turning to `Cc1cn(-c2ccc3n(c2=O)CCN(C(C)c2c[nH]c4cc(F)c(Cl)cc24)C3=O)cn1` (single isomer, unassigned) [compound 183], the values for the pIC50 in assay [1] and in assay [2] were 7.52 and 5.17, respectively. In addition, the response vs control in vivo at 30 mg/kg in assay [3] was found to be 141%.

As for `Cc1cn(-c2ccc3n(c2=O)CC(C)N(C(C)c2cc(C(F)(F)F)cc(C(F)(F)F)c2)C3=O)cn1.Cl` (single isomer, unassigned) [compound 111], the pIC50 in assay [1] is 7.15; in assay [2] it was less than 5.00. Also, the response vs control in vivo at 30 mg/kg in assay [3] was 136%.

Consider `Cc1cn(-c2ccc3n(c2=O)C[C@@H](C)N(Cc2cc(OCC(F)(F)F)cc(C(F)(F)F)c2)C3=O)cn1` [compound 166], for which the pIC50 is 7.30 in assay [1] and less than 5.00 in assay [2]. For the same compound, in assay [3], the response vs control in vivo at 30 mg/kg came out at 127%.

Take `Cc1cn(-c2ccc3n(c2=O)C[C@@H](C)N(Cc2cc(Br)cc(C(F)(F)F)c2)C3=O)cn1` [compound 145]: the pIC50 in assay [1] is 6.96; in assay [2], less than 5.00. Moreover, in assay [3], the response vs control in vivo at 30 mg/kg came to 102%.

With `Cc1cn(-c2ccc3n(c2=O)CC(C)N(C(C)c2c[nH]c4c(F)cc(Cl)cc24)C3=O)cn1` (single isomer, unassigned) [compound 219], the negative-log IC50 (pIC50) was 7.70 in assay [1] and 5.51 in assay [2]. The response vs control in vivo at 30 mg/kg in assay [3] was 119%.

`Cc1cn(-c2ccc3n(c2=O)CC(C)N(C(C)c2cn(C)c4cc(F)c(Cl)cc24)C3=O)cn1` (single isomer, unassigned) [compound 189] showed a negative logarithm of the IC50 (pIC50) in assay [1] of 6.66. Moreover, the response vs control in vivo at 30 mg/kg in assay [3] was 116%.

As for `Cc1cn(-c2ccc3n(c2=O)C[C@@H](C)N(Cc2cc(N4CCC(C)CC4)ccc2Cl)C3=O)cn1` [compound 80], the pIC50 in assay [1] was 7.00; in assay [2] it was less than 5.00. The response vs control in vivo at 30 mg/kg in assay [3] is 133%.

The pIC50 is −log10 of the IC50, conventionally taken in molar units.
